Consider 26 compounds from patent US20040248904A1, “New piperidinylamino-thieno[2,3-d] pyrimidine compounds” (priority 2003, published 2004).

For one data set, the target named is 5-HT2B (Homo sapiens, UniProt P41595). The data set can be described thus: 5-HT2B receptor affinity (K1, Table 1). Type of data set: binding. The procedure:
(§1) Compounds of the invention were made according to the respective syntheses noted above, and their activity and selectivity was determined. […] The compounds accordingly are expected to be useful as 5-HT2B receptor modulators, e.g., in the treatment of a wide variety of clinical conditions which are characterized by serotonin excess or absence, e.g., serotoninergic hypofunction or hyperfunction. Such conditions include those noted above, and conditions associated with vascular disorders, e.g., angina, migraine, pulmonary hypertension and systemic hypertension.

Data set [1] in a line: Rat pharmacokinetics (% F, T1/2). Conditions: in vivo; for bioavailability: oral, read-out: PK (% F) rat.
A further data set has as its system Rat Fundus. The data set can be described thus: Functional (Antagonist Rat Fundus). Format: cell-based. The procedure:
as §1

Where two headings read alike, the source gives them in different places.

Chain of 5-HT2B (P41595 whole entry, species assumed): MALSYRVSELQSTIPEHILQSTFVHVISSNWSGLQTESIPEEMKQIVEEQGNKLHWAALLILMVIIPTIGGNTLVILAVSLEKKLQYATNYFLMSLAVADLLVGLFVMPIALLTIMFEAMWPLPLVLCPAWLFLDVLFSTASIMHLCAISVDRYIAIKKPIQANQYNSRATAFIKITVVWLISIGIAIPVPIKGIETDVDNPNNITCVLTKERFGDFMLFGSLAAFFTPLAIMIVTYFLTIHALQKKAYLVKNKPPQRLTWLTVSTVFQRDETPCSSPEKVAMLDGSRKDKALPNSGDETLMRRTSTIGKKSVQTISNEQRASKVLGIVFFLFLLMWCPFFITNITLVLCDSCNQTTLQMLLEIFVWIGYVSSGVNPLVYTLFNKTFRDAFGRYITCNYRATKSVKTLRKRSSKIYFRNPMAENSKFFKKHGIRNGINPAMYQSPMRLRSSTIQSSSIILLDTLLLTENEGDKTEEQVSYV

Broadly, the Ki is a dissociation constant, usually derived from enzyme kinetics or from competition with a known ligand. The compound `CC(C)Cc1cc2c(NCCCNC(C)c3cccc(F)c3)ncnc2s1` (stereo not drawn) [Compound 22] gave a Ki at 5-HT2B of 150 nM.
Turning to `Fc1cccc(CNCCCNc2ncnc3sc4c(c23)CCCC4)c1` [Compound 13], on 5-HT2B, the affinity corresponds to a Ki of 17 nM.
One may read the IC50 as the concentration that inhibits the measured activity by half. `CC(C)c1cc2c(NC3CCN(Cc4cc(F)cc(F)c4)CC3)ncnc2s1` [Compound 1]: the bioavailability in data set [1] worked out at 9.8%. The compound also gave a Ki on 5-HT2B of 0.57 nM. In the data set with Rat Fundus, this compound yielded an IC50 of 830 nM.
For `CC(C)Cc1cc2c(NC3CCN(C(C)c4cccc(F)c4)CC3)ncnc2s1` (stereo not drawn) [Compound 3], the bioavailability in data set [1] came out at 3.9%. Also, in data set [1] (po, read-out: T1/2 (hr) rat* po (converted)), the half-life was 0.45 h. This compound showed a Ki at 5-HT2B of 0.97 nM. Besides, it took 5300 nM to reach half-maximal inhibition in the data set on Rat Fundus (IC50).
As for `Fc1cccc(CN2CCC(Nc3ncnc4sc(Cl)cc34)CC2)c1` [Compound 2], on 5-HT2B, the Ki is 0.79 nM.
Regarding `CC(c1cccc(F)c1)N1CCC(Nc2ncnc3sc4c(c23)CCCC4)CC1` (stereo not drawn) [Compound 6], the Ki on 5-HT2B turned out to be 4 nM.
As for `CC(C#N)(c1cccc(F)c1)N1CCC(Nc2ncnc3sc4c(c23)CCCC4)CC1` (stereo not drawn) [Compound 21], the Ki at 5-HT2B came to 120 nM.
In the case of `Cc1sc2ncnc(NC3CCN(C(C)c4cccc(F)c4)CC3)c2c1C` (stereo not drawn) [Compound 8], the Ki at 5-HT2B amounted to 4.6 nM.
`CC(c1c(F)cccc1F)N1CCC(Nc2ncnc3sc4c(c23)CCCC4)CC1` (stereo not drawn) [Compound 16] showed a Ki on 5-HT2B of 44 nM.
Still for that read-out and setting: the result for `CC(c1c(F)cc(F)cc1F)N1CCC(Nc2ncnc3sc4c(c23)CCCC4)CC1` (stereo not drawn) [Compound 19] reads 72 nM; that for `CC(C)(c1cccc(F)c1)N1CCC(Nc2ncnc3sc4c(c23)CCCC4)CC1` [Compound 12], 15 nM.
For the compound `Fc1cc(F)cc(CN2CCC(Nc3ncnc4sccc34)CC2)c1` [Compound 14], the half-life in data set [1] (iv, read-out: T1/2 (hr) rat iv (converted)) is 0.3 h. Further, the Ki at 5-HT2B turned out to be 18 nM. This compound also had an IC50 in the data set with Rat Fundus of 1600 nM.
Regarding `Cc1sc2ncnc(NC3CCN(CC4CCCCC4)CC3)c2c1C` [Compound 9], at 5-HT2B, the Ki is 7.8 nM.
Consider `CC(C)Cc1cc2c(NC3CCN(C(C)c4c(F)cc(F)cc4F)CC3)ncnc2s1` (stereo not drawn) [Compound 18], for which the affinity at 5-HT2B, expressed as Ki, was 70 nM.
`Fc1cccc(C(N2CCC(Nc3ncnc4sc5c(c34)CCCC5)CC2)C(F)(F)F)c1` (stereo not drawn) [Compound 24] registered a Ki on 5-HT2B of 950 nM.
Consider `CC(C)Cc1cc2c(NC3CCN(C(C)c4cc(F)cc(F)c4)CC3)ncnc2s1` (stereo not drawn) [Compound 7], for which, in data set [1], the bioavailability amounted to 2.8%. At 5-HT2B, this compound registered a Ki of 4.2 nM. It took 5700 nM to reach half-maximal inhibition in the data set with Rat Fundus (IC50).
Compound `CC(c1cccc(F)c1)N1CCC(C)(Nc2ncnc3sc4c(c23)CCCC4)CC1` (stereo not drawn) [Compound 25] displayed a Ki at 5-HT2B of 1200 nM.
Compound `Fc1cccc(CN2CCC(Nc3ncnc4sc5c(c34)CCCC5)CC2)c1` [Compound 4] gave a Ki on 5-HT2B of 2.3 nM. The compound further registered an IC50 with Rat Fundus of 100 nM.
`CC(C)CC(c1cccc(F)c1)N1CCC(Nc2ncnc3sc4c(c23)CCCC4)CC1` (stereo not drawn) [Compound 20] showed a Ki at 5-HT2B of 84 nM.
Regarding `CC(C)Cc1cc2c(N3CCC(NCc4cc(F)cc(F)c4)CC3)ncnc2s1` [Compound 26], affinity at 5-HT2B was put at a Ki of 1300 nM.
On 5-HT2B, `Cc1sc2ncnc(NC3CCN(Cc4ccccc4C#N)CC3)c2c1C` [Compound 23] came in with a Ki of 210 nM.
On 5-HT2B, `CC(C)Cc1cc2c(NC3CCN(C(C)c4c(F)cccc4F)CC3)ncnc2s1` (stereo not drawn) [Compound 15] gave a Ki of 20 nM.
Still for that read-out and setting: the result for `CC(c1cccc(F)c1)N1CCC(Nc2ncnc3sccc23)CC1` (stereo not drawn) [Compound 11] reads 14 nM.
`CC(NCCCNc1ncnc2sc3c(c12)CCCC3)c1cccc(F)c1` (stereo not drawn) [Compound 17] returned a Ki on 5-HT2B of 52 nM.
On to `CC(c1cc(F)cc(F)c1)N1CCC(Nc2ncnc3sc4c(c23)CCCC4)CC1` (stereo not drawn) [Compound 5], for which the affinity on 5-HT2B, expressed as Ki, was 2.64 nM. The compound further came in with an IC50 in the data set on Rat Fundus of 1300 nM.
As to `c1ccc(CN2CCC(Nc3ncnc4sc5c(c34)CCCC5)CC2)cc1` [Compound 10], the bioavailability in data set [1] is 1.5%. The compound further yielded an inhibition constant (Ki) at 5-HT2B of 13 nM. In the data set on Rat Fundus, this compound displayed an IC50 of 110 nM.
